In brackets after ≈: the same amount, converted by molar mass. Structures can show the parent of a compound that is named as a salt.
Experiments:
[1] = test system: Citrobacter freundii 1982; test: MIC in vitro of a 1:4 combination of ceftriaxone with a compound of formula I (Test D); assay type: cell-based; details: 1:4 combination of ceftriaxone with the compound; for MIC C. freundii 1982 (D): Table 4, test D; for MIC C. freundii 1982: Table 2
Description: The minimum inhibitory concentration in vitro ([…]) of a 1:4 combination of ceftriaxone with a compound of formula I against Citrobacter freundii 1982 was measured and compiled in Table 2 hereinafter.

E. coli 1346 = test: Antibacterial activity of the products per se, serial dilution method in liquid medium (Test E); assay type: cell-based; details: product per se; for MIC E. coli 1346 (E): Table 4, test E; for MIC E. coli 1346: Table 3, liquid medium
Description: The antibacterial activity of the products per se is illustrated on the basis of Table 3 hereinafter, the minimum inhibitory concentration […] in vitro against E. coli 1346 being determined using the serial dilution method in liquid medium: […]

Compound	MIC C. freundii 1982 (D) [1] [µg/mL]	MIC E. coli 1346 (E) (E. coli 1346) [µg/mL]	MIC C. freundii 1982 [1] [µg/mL]	MIC E. coli 1346 (E. coli 1346) [µg/mL]
CC(=O)NCC1=C(C(=O)O)N2C(=O)[C@@H]3[C@H]2[C@H](C1)CN3C(=O)C(F)(F)F [Example 86, (1aS,3aR,6bR)-5-Acetylaminomethyl-1-oxo-2-trifluoroacetyl-1a,2,3,3a,4,6b-hexahydro-1H-2,6a-diazacyclobut[cd]indene-6-carboxylic acid sodium salt]	2	16		
NC(=O)OCC1=C(C(=O)O)N2C(=O)[C@@H]3[C@H]2[C@H](C1)CN3C(=O)NCc1ccc(S(N)(=O)=O)cc1 [27(e), (1aS,3aR,6bR)-5-Carbamoyloxymethyl-2-(4-sulphamoylbenzylcarbamoyl)-1-oxo-1a,2,3,3a,4,6b-hexahydro-1H-2,6a-diazacyclobut[cd]indene-6-carboxylic acid sodium salt]	0.5	32		
O=C([O-])C[n+]1ccc(SCC2=C(C(=O)O)N3C(=O)[C@@H]4[C@H]3[C@H](C2)CN4C(=O)NCc2ccccc2)cc1 [Example 51, (1aS,3aR,6bR)-[4-(2-Benzylcarbamoyl-6-carboxy-1-oxo-1a,2,3,3a,4,6b-hexahydro-1H-2,6a-diazacyclobut[cd]inden-5-ylmethylsulphanyl)-pyridin-2-ylio]-acetate sodium salt]	1	> 32		
CC(=O)N1C[C@H]2OC(CSc3nnnn3CC(N)=O)=C(C(=O)O)N3C(=O)[C@@H]1[C@@H]23 [32(e), (1aS,3aR,6bS)-2-Acetyl-5-(1-carbamoylmethyl-1H-tetrazol-5-ylsulphanylmethyl)-1-oxo-1,1a,2,3,3a,6b-hexahydro-4-oxa-2,6a-diazacyclobut[cd]indene-6-carboxylic acid sodium salt]	2	4		
NC(=O)CSC1=C(C(=O)O)N2C(=O)[C@@H]3[C@H]2[C@H](C1)CN3C(=O)C(F)(F)F [3(al), (1aS,3aR,6bR)-5-Carbamoylmethylsulphanyl-1-oxo-2-trifluoroacetyl-1a,2,3,3a,4,6b-hexahydro-1H-2,6a-diazacyclobut[cd]indene-6-carboxylic acid sodium salt]	2	8		
C=CC1=C(C(=O)O)N2C(=O)[C@@H]3[C@H]2[C@H](C1)CN3C(=O)Nc1ccc(O)cc1 [46(a), (1aS,3aR,6bR)-2-(4-Hydroxy-phenylcarbamoyl)-1-oxo-5-vinyl-1a,2,3,3a,4,6b-hexahydro-1H-2,6a-diazacyclobut[cd]indene-6-carboxylic acid sodium salt]	1	64		
O=C(O)C1=C(CSc2nc[nH]n2)C[C@@H]2CN(C(=O)C(F)(F)F)[C@@H]3C(=O)N1[C@H]23 [76(b), (1aS,3aR,6bR)-1-Oxo-5-(1H-1,2,4-triazol-3-ylsulphanylmethyl)-2-trifluoroacetyl-1a,2,3,3a,4,6b-hexahydro-1H-2,6a-diazacyclobut[cd]indene-6-carboxylic acid sodium salt]	0.5	≤ 0.25		
Cn1nnnc1SCC1=C(C(=O)O)N2C(=O)[C@@H]3[C@H]2[C@@H](CN3C(=O)Nc2ccc(O)cc2)O1 [31(h), (1aS,3aR,6bS)-2-(4-hydroxy-phenylcarbamoyl)-5-(1-methyl-1H-tetrazol-5-ylsulphanylmethyl)-1-oxo-1,1a,2,3,3a,6b-hexahydro-4-oxa-2,6a-diazacyclobut[cd]indene-6-carboxylic acid sodium salt]	0.5	8		
CC(=O)N1C[C@H]2CC(SCc3n(C)nc[n+]3C)=C(C(=O)[O-])N3C(=O)[C@@H]1[C@@H]23 [3(ao), (1aS,3aR,6bR)-2-Acetyl-5-[(1,4-dimethyl-1H-1,2,4-triazol-5-ylio)-methylsulphanyl]-1-oxo-1a,2,3,3a,4,6b-hexahydro-1H-2,6a-diazacyclobut[cd]indene-6-carboxylate]	8	> 32		
Cc1ccc(S(=O)(=O)OC2=C(C(=O)O)N3C(=O)[C@@H]4[C@H]3[C@H](C2)CN4C(=O)Nc2ccc(O)cc2)cc1 [9(i), (1aS,3aR,6bR)-2-(4-Hydroxy-phenylcarbamoyl)-5-(4-methyl-phenylsulphonyloxy)-1-oxo-1a,2,3,3a,4,6b-hexahydro-1H-2,6a-diazacyclobut[cd]indene-6-carboxylic acid sodium salt]			2	16
Cn1nnnc1SCC1=C(C(=O)O)N2C(=O)[C@H]3NC[C@@H](S1)[C@H]32 [Example 40(a), (1aS,3aR,6bS)-5-(1-Methyl-1H-tetrazol-5-ylsulphanylmethyl)-1-oxo-4-thia-1,1a,2,3,3a,6b-hexahydro-2,6a-diazacyclobut[cd]indene-6-carboxylic acid]	0.5	16 (≈ 47 µM)		
CC(=O)N1C[C@H]2CC(COC(=O)Nc3ccc(O)cc3)=C(C(=O)O)N3C(=O)[C@@H]1[C@@H]23 [90(a), (1aS,3aR,6bR)-2-Acetyl-5-(4-hydroxy-phenylcarbamoyloxymethyl)-1-oxo-1a,2,3,3a,4,6b-hexahydro-1H-2,6a-diazacyclobut[cd]indene-6-carboxylic acid sodium salt]	1	0.5		
CS(=O)(=O)NCC1=C(C(=O)O)N2C(=O)[C@H]3NC[C@@H](C1)[C@H]32 [Example 87, (1aS,3aR,6bR)-5-Methylsulphonylaminomethyl-1-oxo-1a,2,3,3a,4,6b-hexahydro-1H-2,6a-diazacyclobut[cd]indene-6-carboxylic acid trifluoroacetate]	4	16		
Cn1nnnc1SCC1=C(C(=O)O)N2C(=O)[C@@H]3[C@H]2[C@@H](CN3C(=O)CSc2nnc(N)s2)S1 [42(c), (1aS,3aR,6bS)-2-(2-Amino-1,3,4-thiadiazol-5-ylsulphanylacetyl)-5-(1-methyl-1H-tetrazol-5-ylsulphanylmethyl)-1-oxo-4-thia-1,1a,2,3,3a,6b-hexahydro-2,6a-diazacyclobut[cd]indene-6-carboxylic acid sodium salt]	0.2	16		
CNC(=O)Cn1nnnc1SCC1=C(C(=O)O)N2C(=O)[C@H]3NC[C@@H](O1)[C@H]32 [Example 29(k), (1aS,3aR,6bS)-5-(1-Methylcarbamoylmethyl-1H-tetrazol-5-ylsulphanylmethyl)-1-oxo-1,1a,2,3,3a,6 b-hexahydro-4-oxa-2,6a-diazacyclobut[cd]indene-6-carboxylic acid]	8	32 (≈ 83.9 µM)		
O=C(Cn1nnnc1SCC1=C(C(=O)O)N2C(=O)[C@H]3NC[C@@H](O1)[C@H]32)NCCc1ccccc1 [29(h), (1aS,3aR,6bS)-1-Oxo-5-(1-(phenylethyl-carbamoylmethyl)-1H-tetrazol-5-ylsulphanylmethyl)-1,1a,2,3,3a,6b-hexahydro-4-oxa-2,6a-diazacydobut[cd]indene-6-carboxylic acid]	32	> 32		
CC(=O)N1C[C@H]2CC(CSc3nnc(N)s3)=C(C(=O)O)N3C(=O)[C@@H]1[C@@H]23 [19(i), (1aS,3aR,6bR)-2-Acetyl-5-(5-amino-1,3,4-thiadiazol-2-ylsulphanylmethyl)-1-oxo-1a,2,3,3a,4,6b-hexahydro-1H-2,6a-diazacyclobut[cd]indene-6-carboxylic acid sodium salt]	1	0.5		
Cn1nnnc1SCC1=C(C(=O)O)N2C(=O)[C@@H]3[C@H]2[C@@H](CN3C(=O)Nc2ccc(C(N)=O)cc2)O1 [31(i), (1aS,3aR,6bS)-2-(4-Carbamoyl-phenylcarbamoyl)-5-(1-methyl-1H-tetrazol-5-ylsulphanylmethyl)-1-oxo-1,1a,2,3,3a,6b-hexahydro-4-oxa-2,6a-diazacyclobut[cd]indene-6-carboxylic acid sodium salt]	0.5	8		
O=C(O)C1=C(Sc2ccncc2)C[C@@H]2CN(C(=O)Nc3ccc(O)cc3)[C@@H]3C(=O)N1[C@H]23 [3(o), (1aS,3aR,6bR)-2-(4-Hydroxy-phenylcarbamoyl)-1-oxo-5-(pyridin-4-ylsulphanyl)-1a,2,3,3a,4,6b-hexahydro-1H-2,6a-diazacyclobut[cd]indene-6-carboxylic acid sodium salt]	1	> 32		
CC(=O)N1C[C@H]2OC(CSc3nnnn3CC(=O)NC3CC3)=C(C(=O)O)N3C(=O)[C@@H]1[C@@H]23 [32(d), (1a-S,3aR,6bS)-2-Acetyl-5-(1-cyclopropylcarbamoylmethyl-1H-tetrazol-5-ylsulphanylmethyl)-1-oxo-1,1a,2,3,3a,6b-hexahydro-4-oxa-2,6a-diazacyclobut[cd]indene-6-carboxylic acid sodium salt]	16	16		
CS(=O)(=O)OC1=C(C(=O)O)N2C(=O)[C@@H]3[C@H]2[C@H](C1)CN3C(=O)NCc1ccc(O)c(O)c1 [9(d), (1aS,3aR,6bR)-2-(3,4-Dihydroxy-benzylcarbamoyl)-5-methylsulphonyloxy-1-oxo-1a,2,3,3a,4,6b-hexahydro-1H-2,6a-diazacyclobut[cd]indene-6-carboxylic acid sodium salt]			2	32
Nc1nnc(SCC2=C(C(=O)O)N3C(=O)[C@H]4NC[C@@H](S2)[C@H]43)s1 [40(e), (1aS,3aR,6bS)-5-(5-Amino-1,3,4-thiadiazol-2-ylsulphanylmethyl)-1-oxo-4-thia-1,1a,2,3,3a,6b-hexahydro-2,6a-diazacyclobut[cd]indene-6-carboxylic acid]	1	32 (≈ 89.5 µM)		

— patent publication US5464617A, “β-lactam compounds” (Hoffmann-La Roche Inc., priority 1994, dated 1995)
